In patent US9302999B2, “Substituted triazoles as herbicides” (E. I. DU PONT DE NEMOURS AND COMPANY, priority 2012, dated 2016):

What was measured:
Assay type in all cases: in vivo
[1] = test system: Russian thistle (Salsola kali); assay: Test C pre-/postemergence: Russian thistle; settings: Preemergence
Description: Seeds of plant species selected from blackgrass (Alopecurus myosuroides), bromegrass, downy (downy bromegrass, Bromus tectorum), foxtail, green (green foxtail, Setaria viridis), ryegrass, Italian (Italian ryegrass, Lolium multiflorum), winter wheat (Triticum aestivum), wild oat (Avena fatua), galium (catchweed bedstraw, Galium aparine), bermudagrass (Cynodon dactylon), surinam grass (Brachiaria decumbens), cocklebur (common cocklebur, Xanthium strumarium), corn (Zea mays), large crabgrass (Digitaria sanguinalis), woolly cupgrass (Eriochloa villosa), foxtail, giant (giant foxtail, Setaria faberii), goosegrass (Eleusine indica), johnsongrass (Sorghum halepense), kochia (Kochia scoparia), lambsquarters (Chenopodium album), morningglory (Ipomoea coccinea), nightshade (eastern black nightshade, Solanum ptycanthum), nutsedge, yellow (yellow nutsedge, Cyperus esculentus), pigweed (Amaranthus retroflexus), ragweed (common ragweed, Ambrosia elation), soybean (Glycine max), common (oilseed) sunflower (Helianthus annuus), Russian thistle (Salsola kali) and velvetleaf (Abutilon theophrasti) were planted into a blend of loam soil and sand and treated preemergence with test chemicals formulated in a non-phytotoxic solvent mixture which included a surfactant.
At the same time, plants selected from these crop and weed species and also barley (winter barley, Hordeum vulgare), canarygrass (Phalaris minor), chickweed (common chickweed, Stellaria media) windgrass (Apera spica-venti) and deadnettle (henbit deadnettle, Lamium amplexicaule) were planted in pots containing Redi-Earth® planting medium (Scotts Company, 14111 Scottslawn Road, Marysville, Ohio 43041) comprising spaghnum peat moss, vermiculite, wetting agent and starter nutrients and treated with postemergence applications of test chemicals formulated in the same manner. Plants ranged in height from 2 to 18 cm (1- to 4-leaf stage) for postemergence treatments.
(§1) Treated plants and controls were maintained in a greenhouse for 13 to 15 days, after which time all species were compared to controls and visually evaluated. Plant response ratings, summarized in Table C, are based on a scale of 0 to 100 where 0 is no effect and 100 is complete control. A dash (-) response means no test result.

[2] = test system: arrowleaf sida (Sida rhombifolia); assay: Test F pre-/postemergence: arrowleaf sida; settings: Preemergence
Description: Seeds of plant species selected from corn (Zea mays), soybean (Glycine max), velvetleaf (Abutilon theophrasti), lambsquarters (Chenopodium album), poinsettia, wild (wild poinsettia, Euphorbia heterophylla), pigweed, palmer (palmer pigweed, Amaranthus palmeri), waterhemp (common waterhemp, Amaranthus rudis), surinam grass (Brachiaria decumbens), crabgrass, Brazil (Brazilian crabgrass, Digitaria horizontalis), panicum, fall (fall panicum Panicum dichotomiflorum), crabgrass, large (large crabgrass, Digitaria sanguinalis), foxtail, giant (giant foxtail, Setaria faberii), foxtail, green (green foxtail Setaria viridis), goosegrass (Eleusine indica), ragweed (common ragweed, Ambrosia elatior), barnyardgrass (Echinochloa crus-galli), sandbur (southern sandbur, Cenchrus echinatus), arrowleaf sida (Sida rhombifolia), ryegrass, Italian (Italian ryegrass, Lolium multiflorum), dayflower, VA (Virginia (VA) dayflower, Commelina virginica), field bindweed (Convolvulus arvensis), cocklebur (common cocklebur, Xanthium strumarium), morningglory (Ipomoea coccinea), nightshade (eastern black nightshade, Solanum ptycanthum), kochia (Kochia scoparia), nutsedge, yellow (yellow nutsedge, Cyperus esculentus), johnsongrass (Sorghum halepense), smartweed (ladysthumb smartweed, Polygonum persicaria), and beggarticks (hairy beggarticks, Bidens pilosa), were planted into a silt loam soil and treated preemergence with test chemicals formulated in a non-phytotoxic solvent mixture which included a surfactant. At the same time, plants selected from these crop and weed species and also pigweed (Amaranthus retroflexus), waterhemp_RES1 (ALS/Triazine resistant common waterhemp, Amaranthus rudis) and waterhemp_RES2 (ALS/HPPD resistant common waterhemp, Amaranthus rudis) were planted in pots containing a planting medium comprising spaghnum peat moss, vermiculite, wetting agent and starter nutrients treated with postemergence applications of some of the test chemicals formulated in the same manner. Plants ranged in height from 2 to 18 cm for postemergence treatments (1- to 4-leaf stage).
as §1, with “14” for “13”, “21” for “15”, “E,” for “C,”

[3] = test system: radish, wild (wild radish, Raphanus raphanistrum); assay: Test D pre-/postemergence: radish, wild
Description: Seeds of plant species selected from bluegrass (annual bluegrass, Poa annua), blackgrass (Alopecurus myosuroides), canarygrass (Phalaris minor), chickweed (common chickweed, Stellaria media), galium (catchweed bedstraw, Galium aparine), bromegrass, downy (downy bromegrass, Bromus tectorum), field poppy (Papaver rhoeas), field violet (Viola arvensis), foxtail, green (green foxtail, Setaria viridis), deadnettle (henbit deadnettle, Lamium amplexicaule), ryegrass, Italian (Italian ryegrass, Lolium multiflorum), kochia (Kochia scoparia), lambsquarters (Chenopodium album), oilseed rape (Brassica napus), pigweed (Amaranthus retroflexus), Russian thistle (Salsola iberica), chamomile (scentless chamomile, Matricaria inodora), speedwell (bird's-eye speedwell, Veronica persica), barley, spring (spring barley, Hordeum vulgare), wheat, spring (spring wheat, Triticum aestivum), buckwheat, wild (wild buckwheat, Polygonum convolvulus), mustard, wild (wild mustard, Sinapis arvensis), oat, wild (wild oat, Avena fatua), radish, wild (wild radish, Raphanus raphanistrum), windgrass (Apera spica-venti), barley, winter (winter barley, Hordeum vulgare), and wheat, winter (winter wheat, Triticum aestivum) were planted into a silt loam soil and treated preemergence with test chemicals formulated in a non-phytotoxic solvent mixture which included a surfactant. At the same time, these same crop and weed species were planted in pots containing the planting medium comprising spaghnum peat moss, vermiculite, wetting agent and starter nutrients and treated with postemergence applications of the test chemicals formulated in the same manner. Plants ranged in height from 2 to 18 cm (1- to 4-leaf stage).
as §1, with “controlled growth environment” for “greenhouse”, “14” for “13”, “21 days” for “15 days,”, “D,” for “C,”

[4] = test system: kochia (Kochia scoparia); assay: Test D pre-/postemergence: kochia
Outline: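 Pre- and postemergence herbicide screen. Soil for pre: silt loam; post medium: peat moss, vermiculite, wetting agent, starter nutrients. Plant stage at post: 1- to 4-leaf. Readout: visual % control, 14–21 days.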

[5] = 250 g ai/ha, scale 0 to 100, 0 no effect, 100 complete control
[6] = Postemergence, 31 g ai/ha, scale 0 to 100 (0 no effect, 100 complete control)
[7] = Postemergence, 62 g ai/ha, scale 0 to 100 (0 no effect, 100 complete control)
[8] = Postemergence, 125 g ai/ha, scale 0 to 100, 0 no effect, 100 complete control
[9] = Postemergence, 250 g ai/ha, scale 0 to 100 (0 no effect, 100 complete control)
[10] = Preemergence, 62 g ai/ha, scale 0 to 100
[11] = Preemergence, 125 g ai/ha, scale 0 to 100
[12] = Preemergence, 250 g ai/ha, scale 0 to 100
[13] = 31 g ai/ha, scale of 0 to 100, 0 is no effect, 100 is complete control
[14] = 62 g ai/ha, scale of 0 to 100, 0 is no effect, 100 is complete control
[15] = 125 g ai/ha, scale 0 to 100, 0 no effect, 100 complete control
[16] = Preemergence, 31 g ai/ha, scale 0 to 100, 0 no effect, 100 complete control
[17] = Postemergence, 16 g ai/ha, scale 0 to 100
[18] = Preemergence, 16 g ai/ha, scale 0 to 100, 0 no effect, 100 complete control

Structure (SMILES)	Plant response rating, Russian Thistle [1, 5]	Plant response rating: Radish, Wild [3, 6]	Plant response rating: Radish, Wild [3, 7]	Plant response rating: Radish, Wild [3, 8]	Plant response rating: Radish, Wild [3, 9]	Plant response rating, Radish, Wild [3, 10]	Plant response rating, Radish, Wild [3, 11]	Plant response rating, Radish, Wild [3, 12]	Plant response rating, Russian Thistle [1, 13]	Plant response rating, Russian Thistle [1, 14]	Plant response rating, Russian Thistle [1, 15]	Plant response rating: Kochia [4, 6]	Plant response rating: Kochia [4, 7]	Plant response rating: Kochia [4, 8]	Plant response rating: Kochia [4, 9]	Plant response rating, Kochia [4, 16]	Plant response rating, Kochia [4, 10]	Plant response rating, Kochia [4, 11]	Plant response rating, Kochia [4, 12]	Plant response rating, Radish, Wild [3, 17]	further results
COc1nn(-c2cccc(F)c2)nc1Cc1ccnc(C(F)(F)F)c1 [Compound 139]	5	–	–	–	–	–	–	–	–	–	–	–	–	–	–	–	–	–	–	–	Plant response rating, Arrowleaf Sida ([2]; 16 g ai/ha, scale 0 to 100, 0 no effect, 100 complete control): 0; Plant response rating, Arrowleaf Sida ([2]; 31 g ai/ha, scale 0 to 100, 0 no effect, 100 complete control): 0; Plant response rating, Arrowleaf Sida ([2]; 62 g ai/ha, scale 0 to 100): 0; Plant response rating, Arrowleaf Sida ([2]; 125 g ai/ha, scale 0 to 100): 0; Plant response rating, Arrowleaf Sida ([2]; 250 g ai/ha, scale 0 to 100): 0
FC(F)(F)COc1nn(-c2ccc(C(F)(F)F)cc2)nc1Cc1ccnc(C(F)(F)F)c1 [Compound 14, 4-[[5-(2,2,2-trifluoroethoxy)-2-[4-(trifluoromethyl)phenyl]-2H-1,2,3-triazol-4-yl]methyl]-2-(trifluoromethyl)pyridine]	95	70	85	100	100	40	100	100	10	90	95	95	95	100	100	10	40	80	90	–	–
Fc1ccc(-n2nc(Cc3ccnc(C(F)(F)F)c3)c(OC(F)F)n2)cc1 [Compound 25]	90	–	–	–	–	–	–	–	0	–	90	–	–	–	–	–	–	–	–	–	–
COc1nn(-c2ccc(C(F)(F)F)cc2)nc1Cc1ccnc(C(F)(F)F)c1 [Compound 15, 4-[[5-methoxy-2-[4-(trifluoromethyl)phenyl]-2H-1,2,3-triazol-4-yl]methyl]-2-(trifluoromethyl)pyridine]	–	100	100	100	100	0	100	100	50	95	100	90	90	100	100	0	0	70	100	100	Plant response rating, Radish, Wild [3, 16]: 0; Plant response rating, Russian Thistle ([1]; 16 g ai/ha, scale 0 (no effect) to 100 (complete control)): 5; Plant response rating, Kochia [4, 17]: 20
COc1nn(-c2ccc(C(F)(F)F)cc2)nc1Cc1ccnc(C(F)F)c1 [Compound 138]	100	80	95	100	100	–	–	–	85	90	90	95	100	100	100	–	–	–	–	80	Plant response rating, Kochia [4, 17]: 95
Cc1nn(-c2ccc(C(F)(F)F)cc2)nc1Oc1ccnc(C(F)(F)F)c1 [Compound 120]	100	100	90	100	100	20	90	100	0	–	85	98	100	100	100	10	30	95	100	100	Plant response rating, Radish, Wild [3, 18]: 0; Plant response rating, Kochia [4, 17]: 98; Plant response rating, Kochia [4, 18]: 0
Cc1nn(-c2ccc(C(F)(F)F)cn2)nc1Cc1cccc(C(F)(F)F)c1 [Compound 106]	100	100	100	100	100	30	30	30	0	5	30	60	70	95	100	0	0	30	30	100	Plant response rating, Radish, Wild [3, 16]: 0; Plant response rating, Kochia [4, 17]: 60
